Reference: article PMC2222952, “Structural and Biochemical Bases for the Inhibition of Autophagy and Apoptosis by Viral BCL-2 of Murine γ-Herpesvirus 68” (PLoS Pathogens, 2008)
“Also recorded” adds a separate entry of the source. Ends that are not written are not given here.

T1: M11, viral BCL-2 of murine γ-herpesvirus 68 (residues 1–137) (Murid herpesvirus 4, UniProt P89884)
T1 construct: Each of the DNA fragments coding for M11 (residues 1–137); His6 tag; This is inferred: pPROEX HTa encodes an N-terminal His tag with a TEV site, and purification was on Ni-NTA; (N); made in house; host or cells: E. coli BL21(DE3)
T1 sequence (P89884 whole entry, looked up): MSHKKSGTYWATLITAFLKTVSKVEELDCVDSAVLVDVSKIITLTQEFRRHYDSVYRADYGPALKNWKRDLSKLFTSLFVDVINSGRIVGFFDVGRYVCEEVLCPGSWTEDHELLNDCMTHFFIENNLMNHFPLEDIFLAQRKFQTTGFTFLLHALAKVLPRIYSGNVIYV

T2: M11 (residues 1–137), purified alone (murine γ-herpesvirus 68, UniProt P89884 1-137)
T2 chain: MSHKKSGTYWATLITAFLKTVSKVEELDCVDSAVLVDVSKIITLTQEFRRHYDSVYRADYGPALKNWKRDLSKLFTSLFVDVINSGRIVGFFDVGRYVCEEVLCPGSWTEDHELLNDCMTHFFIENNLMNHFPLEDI

T3: mouse BAD (residues 43–204) (mouse, UniProt Q61337 43-204)
T3 sequence (looked up): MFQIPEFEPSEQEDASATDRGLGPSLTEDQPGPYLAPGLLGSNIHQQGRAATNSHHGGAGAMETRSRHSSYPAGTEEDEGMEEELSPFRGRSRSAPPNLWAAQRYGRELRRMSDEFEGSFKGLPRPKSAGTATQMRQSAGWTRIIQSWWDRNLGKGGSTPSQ

T4: M11 (residues 1–137), coexpressed with Beclin1(101–150) (murine γ-herpesvirus 68, UniProt P89884 1-137)
T4 sequence: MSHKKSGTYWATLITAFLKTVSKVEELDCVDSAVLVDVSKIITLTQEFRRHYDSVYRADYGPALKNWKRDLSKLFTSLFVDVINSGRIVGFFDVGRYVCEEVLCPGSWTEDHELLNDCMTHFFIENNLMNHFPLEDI

B1: BMF BH3 peptide, 24-mer (residues 214–237 of BMF) (peptide)
chain: HRAEVQIARKLQCIADQFHRLHTQ
B2: mouse BCL-XL (residues 1–44 and 85–196) (domain or fragment, UniProt Q64373-1 1-196, looked up)
chain: MSQSNRELVVDFLSYKLSQKGYSWSQFSDVEENRTEAPEETEAEAVKQALREAGDEFELRYRRAFSDLTSQLHITPGTAYQSFEQVVNELFRDGVNWGRIVAFFSFGGALCVESVDKEMQVLVSRIASWMATYLNDHLEPWIQENGGWDTFVDLYG
notes: also called BCL-XL lacking the internal long loop and the C-terminal tail region
B3: Beclin1(101–150) (domain or fragment, mouse, UniProt O88597 101-150, looked up)
chain: ASDGGTMENLSRRLKVTGDLFDIMSGQTDVDHPLCEECTDTLLDQLDTQL
notes: also called mouse Beclin1 fragment consisting of residues 101–150; 50-residue Beclin1 fragment

Legend:
[1] = tested on: M11–Beclin1(101–267) complex; test: Displacement test on M11–Beclin1(101–267) complex; type: binding, murine γ-herpesvirus 68; details: M11 mixed with Beclin1(101–267) at 1:1 molar ratio, 1 h; BH3 peptide added, additional 1 h; gel
Excerpt: (§1) A newly identified function of BCL-2 is the down regulation of autophagy through their inhibitory binding to Beclin1, which appears critical for cellular homeostasis. […] The weak interaction explains the recent observation that endogenous BH3-only proteins induce autophagy by displacing Beclin1 from BCL-2/BCL-XL [31]. Like the cellular kin, two viral BCL-2 proteins from γHV68 and KSHV are known to inhibit autophagy in addition to suppressing apoptotic death of cells. In this study, we provided the structural basis for the inhibitory interaction of M11 with Beclin1, which is reminiscent of the canonical interaction between a BH3 peptide and a BH3-binding groove. […] As a confirmatory experiment, we carried out a displacement test, where a complex between two proteins was challenged by another protein. […] Conceivably, M11 could negate the proautophagic role of the BH3-only proteins under apoptosis-inducing conditions in contrast with BCL-2/BCL-XL.
The complexes between each of the BH3 peptides and BCL-2 or BCL-XL appeared. The numbers above the gels indicate the final concentrations of the indicated proteins and peptides. The schematic drawings are shown to help to understand the experimental scheme and results. (1.8 MB TIF) Click here for additional data file.

A1 ∆C20 = tested on: A1 ∆C20; parameters: method as in earlier work; details: Table S1; relative values, not absolute KD; peptides of Chen et al. are the same as or 1 to 2 residues shorter than those of this paper; read-out: binding affinity for A1 ∆C20 (relative value, competitive binding assay); cited from earlier work
BCL-w ∆C29 = details: Table S1; relative values, not absolute KD; peptides of Chen et al. are the same as or 1 to 2 residues shorter than those of this paper; read-out: binding affinity for BCL-w ∆C29 (relative value, competitive binding assay); cited from earlier work
BCL-XL ∆C24 = details: Table S1; relative values, not absolute KD; peptides of Chen et al. are the same as or 1 to 2 residues shorter than those of this paper; read-out: binding affinity for BCL-XL ∆C24 (relative value, competitive binding assay); cited from earlier work
BCL-2 ∆C22 = tested on: BCL-2 ∆C22; parameters: method as in earlier work; details: Table S1; relative values, not absolute KD; peptides of Chen et al. are the same as or 1 to 2 residues shorter than those of this paper; read-out: binding affinity for BCL-2 ∆C22 (relative value, competitive binding assay); cited from earlier work
[2] = tested on: BCL-2–Beclin1(101–267) complex; test: Displacement test on BCL-2–Beclin1(101–267) complex; type: binding, human; details: BCL-2 mixed with Beclin1(101–267) at 1:4 molar ratio, 1 h; BH3 peptide added; gel
Excerpt: as §1
(§2) Each of the DNA fragments coding for M11 (residues 1–137), mouse BCL-XL (residues 1–44 and 85–196) or mouse Beclin1 (residues 101–267) was cloned into pPROEX HTa. A plasmid containing the DNA segment coding for human BCL-2 (residues 1–50 and 92–207) was also constructed. […]

[3] = biological target: T1, M11, viral BCL-2 of murine γ-herpesvirus 68 (residues 1–137); type: binding; details: 25 °C, 20 mM Tris-HCl (pH 7.4), 100 mM NaCl
Excerpt: “HT”, “CCD” and “ECD” denote hydrophobic tail, coiled-coil domain and evolutionarily conserved domain, respectively. […] The surface coloring scheme is as follows: olive for Val, Leu, Ile, Phe, Trp, Met, and Ala; yellow for Cys, Gly, Tyr, and Pro; gray for other amino acids. […] Only the BH3-binding groove region of M11 is shown for clarity. […] The arrows indicate the movements of the Cα atoms of Asp59 and Tyr60 in M11. (C) ITC analysis.
Figure 5 Analyses of the Interactions between M11 or BCL-2 Proteins and BAX/BAK (A) Cell-based binding assay. 293T cells were transfected with HA-tagged BAK or Flag-tagged BAX together with the indicated GST-tagged prosurvival BCL-2 proteins. Whole cell lysates were used for immunoprecipitation with anti-GST followed by immunoblotting with anti-HA or anti-Flag. […] (B) ITC analyses of the interactions of M11 with the BH3 peptides of BAX or BAK. The ITC analysis was carried out by titrating 0.1 mM of the indicated peptides into 5 μM of M11. The ITC run for the titration of the 26-mer BAK peptide is shown. […] NIH3T3 cells were transfected with HA-tagged M11 and whole cell lysates were used for immunoprecipitation with control rabbit serum or anti-BAK followed by immunoblotting with anti-HA.
A plasmid containing the DNA segment coding for human BCL-2 (residues 1–50 and 92–207) was also constructed. The resulting protein lacks the internal long loop (residues 51–91) and contains a replacement of residues 35–50 with residues 33–48 of BCL-XL, which was necessary for the solubility of the protein as reported earlier. Each construct was introduced into the E. coli BL21(DE3) strain. The proteins were expressed at 21 °C overnight and purified using a Ni-NTA column and a Hitrap Q anion exchange column.
All measurements were carried out at 25 °C on a MicroCalorimetry System (MicroCal). Protein samples were dialyzed against the solution containing 20 mM Tris-HCl (pH 7.4) and 100 mM NaCl. The samples were degassed for 20 min and centrifuged to remove any residuals prior to the measurements. Dilution enthalpies were measured in separate experiments (titrant into buffer) and subtracted from the enthalpies of the binding between the protein and the titrant. Data were analyzed using the Origin software (OriginLab Corp.).

MCL ∆N151 ∆C23 = tested on: MCL ∆N151 ∆C23; parameters: method as in earlier work; details: Table S1; relative values, not absolute KD; peptides of Chen et al. are the same as or 1 to 2 residues shorter than those of this paper; read-out: binding affinity for MCL ∆N151 ∆C23 (relative value, competitive binding assay); cited from earlier work
[4] = tested on: BCL-XL–Beclin1(101–267) complex; test: Displacement test on BCL-XL–Beclin1(101–267) complex; type: binding, mouse; details: BCL-XL mixed with Beclin1(101–267) at 1:4 molar ratio, 1 h; BH3 peptide added; gel
Excerpt: as §1, §2

Beclin1 peptide = Beclin1 peptide (UniProt Q14457); details: cited from earlier work
[5] = biological target: T2, M11 (residues 1–137), purified alone; test: ITC
[6] = biological target: T3, mouse BAD (residues 43–204); test: crystal structure; BCL-XL (1–44, 85–196) coexpressed and co-purified with BAD(43–204); hanging drop, 4 °C, 10% PEG 1000, 10% PEG 8000; 2.3 Å; details: both partners purified
[7] = biological target: T4, M11 (residues 1–137), coexpressed with …; test: crystal structure; details: both partners purified

Molecule	IC50 (A1 ∆C20)	IC50 (BCL-w ∆C29)	IC50 (BCL-XL ∆C24)	IC50 (BCL-2 ∆C22)	also measured
CC[C@H](C)[C@H](NC(=O)[C@H](CCCCN)NC(=O)[C@H](CCCNC(=N)N)NC(=O)[C@H](CC(C)C)NC(=O)[C@H](CCC(N)=O)NC(=O)[C@H](C)NC(=O)[C@H](C)NC(=O)[C@H](Cc1ccccc1)NC(=O)[C@H](CCC(=O)O)NC(=O)[C@@H]1CCCN1C(=O)[C@@H]1CCCN1C(=O)[C@H](CC(C)C)NC(=O)[C@H](CCC(=O)O)NC(=O)[C@H](C)NC(=O)[C@@H](N)CCCNC(=N)N)C(=O)NCC(=O)N[C@@H](CC(=O)O)C(=O)N[C@@H](CCCCN)C(=O)N[C@H](C(=O)N[C@@H](Cc1ccc(O)cc1)C(=O)N[C@@H](CS)C(=O)N[C@H](C(=O)N[C@@H](Cc1c[nH]c2ccccc12)C(=O)N[C@@H](CO)C(=O)N[C@@H](C)C(=O)N1CCC[C@H]1C(=O)O)[C@@H](C)O)C(C)C [Noxa]	180 nM	> 100000 nM	> 100000 nM	> 100000 nM	displacement of Beclin1(101–267) bound to M11 by BH3 peptide [1]: remained intact; also recorded: failed to displace
BAD: synthetic 27-mer BH3 peptide, residues 137–163 of BAD (TATQMRQSSSWTRVFQSWWDRNLGRGS; BH3 peptide; UniProt Q92934 137-163, looked up, fragment)	15000 nM	30 nM	5.3 nM	16 nM	displacement of Beclin1(101–267) bound to BCL-2 by BH3 peptide [2]: easily disrupted; interaction with M11 in ITC, in words (KD could not be deduced) [3]: did not interact or poorly interacted; IC50 (MCL ∆N151 ∆C23): > 100000 nM; displacement of Beclin1(101–267) bound to BCL-XL by BH3 peptide [4]: easily disrupted
BCL-XL (from UniProt Q07817)	–	–	–	–	Kd (Beclin1 peptide): 1100 nM
EEIIHNIARHLAQIGDEMDHNIQPT [BID]	9.3 nM	40 nM	82 nM	6800 nM	displacement of Beclin1(101–267) bound to M11 by BH3 peptide [1]: remained intact; also recorded: failed to displace
B1	–	–	–	–	Kd [5]: 300 nM
B2	–	–	–	–	binding result [6]: binds
B3	–	–	–	–	binding result [7]: binds
